Assay results from EP0908457B1, “3-(1,2-benzisothiazol- and isoxazol-5-Y1)-2,4(1H,3H)-pyrimidinedione or thione and 3-(1,2-benzisothiazol- and isoxazol-5-y1)-4(3H)-pyrimidinone or thione herbicidal agents” (BASF AKTIENGESELLSCHAFT, priority 1997, dated 1999).

What was measured:
[1] = test system: Echinochloa oryzoides (Ard.) Fritsch.; assay: Preemergence weed control under flooded paddy conditions, ECHORC (Watergrass (Calif.)); assay type: in vivo; conditions: preemergence weeds, flooded paddy; for herbicidal effect rating, ECHORC: rated three to four weeks after treatment; for ECHORC: herbicidal effect rating 0-9, three to four weeks after treatment; on herbicidal effect rating, ECHORC: meaning of each grade not given here
Cyperus iria = assay: Preemergence weed control under flooded paddy conditions, CYPIR (Rice Flatsedge); assay type: in vivo; conditions: preemergence weeds, flooded paddy; for herbicidal effect rating, CYPIR: rated three to four weeks after treatment; for CYPIR: herbicidal effect rating 0-9, three to four weeks after treatment; on herbicidal effect rating, CYPIR: meaning of each grade not given here
[2] = test system: Cyperus serotinus, Rottb.; assay: Preemergence weed control under flooded paddy conditions, CYPSE (Flatsedge); assay type: in vivo; conditions: preemergence weeds; for herbicidal effect rating, CYPSE: rated three to four weeks after treatment; for CYPSE: herbicidal effect rating 0-9, three to four weeks after treatment; on herbicidal effect rating, CYPSE: meaning of each grade not given here
[3] = test system: Monochoria vaginalis, Presl.; assay: Preemergence weed control under flooded paddy conditions, MOOVA (Monochoria); assay type: in vivo; conditions: preemergence weeds, flooded paddy; for herbicidal effect rating, MOOVA: rated three to four weeks after treatment; for MOOVA: herbicidal effect rating 0-9, three to four weeks after treatment; on herbicidal effect rating, MOOVA: meaning of each grade not given here
Sagittaria pygmaea, L. = assay: Preemergence weed control under flooded paddy conditions, SAGPY (Arrowhead (Pygmaea)); assay type: in vivo; conditions: preemergence weeds, flooded paddy; for herbicidal effect rating, SAGPY: rated three to four weeks after treatment; for SAGPY: herbicidal effect rating 0-9, three to four weeks after treatment; on herbicidal effect rating, SAGPY: meaning of each grade not given here
[4] = test system: Oryza sativa, (L.) Tebonnet; assay: Rice tolerance to post-transplant applications under flooded paddy conditions (Example 187), ORYSAT (Rice, Tebonnet); conditions: for herbicidal effect rating, ORYSAT (rice tolerance): rated three to four weeks after treatment; for ORYSAT: herbicidal effect rating 0-9, three to four weeks after treatment

## CCOCc1nsc2ccc(-n3c(=O)cc(C(F)(F)F)n(C)c3=O)cc12 [Example 195, 3-[3-(Ethoxymethyl)-1,2-benzisothiazol-5-yl]-1-methyl-6-(trifluoromethyl)-2,4(1H,3H)-pyrimidinedione]
[1]; 0.0313 kg/ha
  herbicidal effect rating, ECHORC: 2.0
[1]; 0.0625 kg/ha
  herbicidal effect rating, ECHORC: 3.0
[1]; 0.1250 kg/ha
  herbicidal effect rating, ECHORC: 6.0
[1]; 0.2500 kg/ha
  herbicidal effect rating, ECHORC: 9.0
Cyperus iria; 0.0313 kg/ha
  herbicidal effect rating, CYPIR: 0.0
Cyperus iria; 0.0625 kg/ha
  herbicidal effect rating, CYPIR: 2.0
Cyperus iria; 0.1250 kg/ha
  herbicidal effect rating, CYPIR: 4.0
Cyperus iria; 0.2500 kg/ha
  herbicidal effect rating, CYPIR: 9.0
[2]; 0.0313 kg/ha
  herbicidal effect rating, CYPSE: 0.0
[2]; 0.0625 kg/ha
  herbicidal effect rating, CYPSE: 0.0
[2]; 0.1250 kg/ha
  herbicidal effect rating, CYPSE: 2.0
[2]; 0.2500 kg/ha
  herbicidal effect rating, CYPSE: 7.0
[3]; 0.0313 kg/ha
  herbicidal effect rating, MOOVA: 9.0
[3]; 0.0625 kg/ha
  herbicidal effect rating, MOOVA: 9.0
[3]; 0.1250 kg/ha
  herbicidal effect rating, MOOVA: 9.0
[3]; 0.2500 kg/ha
  herbicidal effect rating, MOOVA: 9.0
Sagittaria pygmaea, L.; 0.0313 kg/ha
  herbicidal effect rating, SAGPY: 0.0
Sagittaria pygmaea, L.; 0.0625 kg/ha
  herbicidal effect rating, SAGPY: 0.0
Sagittaria pygmaea, L.; 0.1250 kg/ha
  herbicidal effect rating, SAGPY: 1.0
Sagittaria pygmaea, L.; 0.2500 kg/ha
  herbicidal effect rating, SAGPY: 2.0
[4]; 0.0313 kg/ha
  herbicidal effect rating, ORYSAT (rice tolerance): 6.0
[4]; 0.0625 kg/ha
  herbicidal effect rating, ORYSAT (rice tolerance): 7.0
[4]; 0.1250 kg/ha
  herbicidal effect rating, ORYSAT (rice tolerance): 9.0
[4]; 0.2500 kg/ha
  herbicidal effect rating, ORYSAT (rice tolerance): 9.0

## CCC(C#N)c1nsc2ccc(-n3c(=O)cc(C(F)(F)F)n(C)c3=O)cc12 (stereo not drawn) [Example 444, 1,2-Benzisothiazole-3-acetonitrile, 5-[3,6-dihydro-3-methyl-2,6-dioxo-4-(trifluoromethyl)-1(2H)-pyrimidinyl]-alpha-ethyl-]
[1]; 0.0320 kg/ha
  ECHORC: 3.5
[1]; 0.0620 kg/ha
  ECHORC: 6.0
[1]; 0.1250 kg/ha
  ECHORC: 8.5
[1]; 0.2500 kg/ha
  ECHORC: 9.0
Cyperus iria; 0.0320 kg/ha
  CYPIR: 7.5
Cyperus iria; 0.0620 kg/ha
  CYPIR: 8.0
Cyperus iria; 0.1250 kg/ha
  CYPIR: 9.0
Cyperus iria; 0.2500 kg/ha
  CYPIR: 9.0
[2]; 0.0320 kg/ha
  CYPSE: 3.5
[2]; 0.0620 kg/ha
  CYPSE: 9.0
[2]; 0.1250 kg/ha
  CYPSE: 9.0
[2]; 0.2500 kg/ha
  CYPSE: 9.0
[3]; 0.0320 kg/ha
  MOOVA: 8.0
[3]; 0.0620 kg/ha
  MOOVA: 9.0
[3]; 0.1250 kg/ha
  MOOVA: 9.0
[3]; 0.2500 kg/ha
  MOOVA: 9.0
Sagittaria pygmaea, L.; 0.0320 kg/ha
  SAGPY: 4.5
Sagittaria pygmaea, L.; 0.0620 kg/ha
  SAGPY: 6.0
Sagittaria pygmaea, L.; 0.1250 kg/ha
  SAGPY: 7.0
Sagittaria pygmaea, L.; 0.2500 kg/ha
  SAGPY: 9.0
[4]; 0.0320 kg/ha
  ORYSAT: 4.5
[4]; 0.0620 kg/ha
  ORYSAT: 6.5
[4]; 0.1250 kg/ha
  ORYSAT: 9.0
[4]; 0.2500 kg/ha
  ORYSAT: 8.5
